The text below walks through data of patent US11731933B2, “Device and method for the desalination of water by means of thermal deionisation and liquid-phase ion extraction liquid” (ADIONICS, priority 2015, dated 2023).

Data set [1] can be described thus: NaCl extraction from 0.4M NaCl water by ASM + Calix[4]Est in chloroform (Example 11). The settings on record: for NaCl - 20° C. % ext (average) / NaCl - 60° C. % ext (average): average molar extraction; for Mol % Cl- extracted from the water to be treated / Mol % Na+ extracted from the water to be treated: CEM 0.3 Mol/L, ASM 0.3 Mol/L in CHCl3, 0.4 M NaCl; for Δ % ext: difference 20° C. minus 60° C. The method, then:
The extraction composition is obtained by solubilizing an amount of 4-tert-butyl Calix[4]arene tetraethyl Ester (CAS No. 97600-39-0) and ASM in chloroform CHCl3 to obtain a final concentration after solubilization of the CEM and ASM of 0.3 mol/L for Calix[4]Est and of 0.3 mol/L for ASM, respectively. These sealed formulations were then orbitally stirred at 500 rpm for 2 hours after adding an equivalent volume of twice distilled water to allow water saturation of the entire formulation and control of pH output (pH=7). The extraction composition is then put to stand to settle. All the compositions tested are stable and rapidly decanted (a few minutes at the most).
A 0.4 mol/L NaCl aqueous solution was prepared from twice distilled water.
The organic extraction composition is then slightly heated to promote solubilization of the compounds by hot air gun (temperature of about 50 to 60° C.) for a few seconds (10 to 30 seconds) until a clear solution is obtained.
3 mL of the organic extraction composition is then removed from the lower phase of the settled two-phase mixture and transferred to a vial containing 3 mL of salt water at 0.4 M NaCl and then the flask is sealed and orbitally stirred (at 500 revolutions per minute), for 2 hours at room temperature (RT), that is to say between 20 and 25° C. In the case of extraction at 60° C., magnetic stirring (at 500 revolutions per minute), for 2 hours, is carried out with indirect heating in a metal mold on a heating plate. It is verified that droplets of the order of 1-2 mm are present during these agitations in order to be certain to achieve equilibrium in the NaCl distribution between the two liquid phases at the end of stirring. The appearance of the organic and aqueous phases is clear and colorless or slightly cloudy.
After stirring for 2 hours, stirring is stopped and the solution is put to stand to settle within 10 minutes, at least until the two phases have completely separated off, at the temperature of the test. The upper aqueous phase is then removed and then stirred and diluted for analysis of its salinity by a Metrohm Ion Chromatograph incorporating a suitable cation analysis column and a suitable anion analysis column. Similarly, the initial aqueous solution of NaCl at 0.4M is also analyzed by this ion chromatograph to determine its relative molar concentration in sodium and in chlorides. AN extractions and analyzes were duplicated.

Data set [2] in a line: NaCl extraction from 0.3M NaCl water by ASMC7 at four concentrations + Calix[4]Est in chloroform (Example 12). On the procedure:
Four extraction compositions were obtained by solubilizing a constant amount of 4-tert-butylCalix[4]arene tetraethylEster (CAS No. 97600-39-0) and four increasing amounts of ASMC7 in chloroform CHCl3 to obtain four final concentrations after solubilization of CEM and ASM, from 0.34 to 0.36 mol/L for Calix[4]Est and 0.36 mol/L, 0.71 mol/L, 1.09 mol/L and 1.49 mol/L for ASMC7, respectively. These four sealed formulations were then orbitally stirred at 500 rpm for 2 hours after adding an equivalent volume of twice distilled water to allow water saturation of the entire formulation and control of pH at the output (pH=7). The extraction composition is then put to stand for settling. All the compositions tested are stable and rapidly decanted (a few minutes at the most).
An 0.3 mol/L NaCl aqueous solution was prepared from twice distilled water.
3 ml of each organic extraction composition are then removed in the lower phase of the settled two-phase mixture and transferred to four vials, each containing 3 ml of the salt water at 0.3M NaCl, then the flasks are sealed and orbitally stirred (at 500 revolutions per minute), for 2 hours at room temperature (RT), that is to say between 20 and 25° C. In the case of extraction at 60° C., a magnetic stirring (at 500 revolutions per minute), for 2 hours, is carried out with indirect heating in a metal mold on a heating plate. It is verified that droplets of the order of 1-2 mm are present during these agitations in order to be certain to reach equilibrium in the NaCl distribution between the two liquid phases at the end of stirring. The appearance of the organic and aqueous phases is clear and colorless for these 4 formulations tested.
After stirring for 2 hours, stirring is stopped and the solution is put to stand for settling within 10 minutes, at least until the two phases have completely separated off, at the test temperature. Then, the four upper aqueous phases are separately taken and then stirred and diluted for analysis of their salinity by a Metrohm Ion Chromatograph incorporating a suitable cation analysis column and a suitable anion analysis column. Similarly, the initial aqueous solution of 0.3M NaCl is also analyzed by this ion chromatograph to determine its relative molar concentration of sodium and chlorides. All extractions and analyzes were duplicated.

Data set [3] can be described thus: Solubility in water (UV-visible spectrometry). As to conditions: water. The class given is physicochemical. From the text:
The hydrophobicity or solubility of a compound can be measured by standard methods and in particular by UV-visible spectrometry.

The mark [4] stands for this setting: 60° C., CEM 0.341, ASMC7 0.708 Mol/L, ratio 2.08.
The mark [5] stands for this setting: 60° C., CEM 0.345, ASMC7 0.358 Mol/L, ratio 1.04.
Setting [6] is: 60° C., CEM 0.349, ASMC7 1.088 Mol/L, ratio 3.12.
Where [7] appears, read: 60° C., CEM 0.358, ASMC7 1.488 Mol/L, ratio 4.16.
Setting [8] is: RT, CEM 0.341, ASMC7 0.708 Mol/L, ratio 2.08.
Setting [9] is: RT, CEM 0.345, ASMC7 0.358 Mol/L, ratio 1.04.
Setting [10] is: RT, CEM 0.349, ASMC7 1.088 Mol/L, ratio 3.12.
Where [11] appears, read: RT, CEM 0.358, ASMC7 1.488 Mol/L, ratio 4.16.

The structures appear in SMILES notation. In brackets after ≈: the same amount, converted by molar mass. Several values for one entry are separate records, joined by “and”; a condition that tells them apart may be missing. Equal values may be shown once. Read-outs that look alike come from different tables or passages of the source.

Take `CCCCCCCCCCCCCC(=O)Nc1cc(C(F)(F)F)cc(C(F)(F)F)c1` [ASMC13, N-[3,5-bis(trifluoromethyl)phenyl]tetradecanamide]: in data set [1], the “NaCl - 20° C. % ext (average)” value was found to be 25.0% and the Δ % ext was determined as 17.2%. Also, in data set [1] (60° C.), the “Mol % Cl- extracted from the water to be treated” value (“Mol % Cl- extracted” for short) is 6.9% and 9.4%; the “Mol % Na+ extracted from the water to be treated” value (from here on “Mol % Na+ extracted”) is 5.9% and 9.0%; the “NaCl - 60° C. % ext (average)” value amounted to 7.8%. For the same compound, in data set [1] (RT), the “Mol % Cl- extracted” value is 26.2% and 27.4%; the “Mol % Na+ extracted” value is 22.7% and 23.8%.

Take `CCCCCCCC(=O)Nc1cc(C(F)(F)F)cc(C(F)(F)F)c1` [ASMC7, N-[3,5-bis(trifluoromethyl)phenyl]octanamide]: the “NaCl - 20° C. % ext (average)” value in data set [1] was 24.6%; in data set [2] ([ASMC7]/[CEM] 1.04), 26.2%; in data set [2] ([ASMC7]/[CEM] 2.08), 44.5%; in data set [2] ([ASMC7]/[CEM] 3.12), 55.9%; in data set [2] ([ASMC7]/[CEM] 4.16), 66.6%. The “Mol % Cl- extracted” value was 7.6% and 7.3% in data set [1] (60° C.); 26.3% and 25.9% in data set [1] (RT). Also, the “Mol % Na+ extracted” value in data set [1] (60° C.) is 5.5% and 5.4%; in data set [1] (RT), 23.6% and 22.8%. In addition, the “NaCl - 60° C. % ext (average)” value in data set [1] (60° C.) is on record as 6.3%; in data set [2] ([ASMC7]/[CEM] 1.04, 60° C.) it was 12.5%; in data set [2] ([ASMC7]/[CEM] 2.08, 60° C.), 27.6%; in data set [2] ([ASMC7]/[CEM] 3.12, 60° C.) it was 34.5%; in data set [2] ([ASMC7]/[CEM] 4.16, 60° C.), 45.1%. Further, the Δ % ext in data set [1] amounted to 18.4%; in data set [2] ([ASMC7]/[CEM] 1.04), 13.6%; in data set [2] ([ASMC7]/[CEM] 2.08) it was 16.9%; in data set [2] ([ASMC7]/[CEM] 3.12) it was 21.3%; in data set [2] ([ASMC7]/[CEM] 4.16), 21.4%. Also, the “Mol % of Cl− extracted from water to be treated” value in data set [2] (setting [4]) is 26.6% and 27.4%; in data set [2] (setting [5]), 13.0% and 14.1%; in data set [2] (setting [6]) it was 31.0% and 30.4%; in data set [2] (setting [7]) it was 45.6% and 39.9%; in data set [2] (setting [8]), 44.4%; in data set [2] (setting [9]), 27.9% and 27.2%. Moreover, the “Mol % of Cl− extracted from water to be treated” value in data set [2] (setting [10]) is 51.2% and 52.9%; in data set [2] (setting [11]) it was 64.6% and 65.6%. Further, the “Mol % of Na+ extracted from water to be treated” value in data set [2] (setting [4]) is 28.1% and 28.2%; in data set [2] (setting [5]), 9.9% and 13.1%; in data set [2] (setting [6]), 37.7% and 39.5%; in data set [2] (setting [7]) it was 48.4% and 46.9%; in data set [2] (setting [8]), 44.2% and 45.1%; in data set [2] (setting [9]) it was 27.9% and 21.7%. Besides, the “Mol % of Na+ extracted from water to be treated” value in data set [2] (setting [10]) was 60.0% and 59.8%; in data set [2] (setting [11]), 71.2% and 65.0%.

`Nc1cc(C(F)(F)F)cc(C(F)(F)F)c1` [AnilineF*, 3,5-Di(trifluoromethyl)aniline, reference compound]: in data set [1], the “NaCl - 20° C. % ext (average)” value worked out at 2.7% and the Δ % ext is recorded as 2.7%. In addition, in data set [1] (60° C.), the “Mol % Cl- extracted” value is “not detected” and the “NaCl - 60° C. % ext (average)” value is 0.0%. Further, in data set [1] (RT), the “Mol % Cl- extracted” value is 4.3% and 2.9%; the “Mol % Na+ extracted” value is 2.0% and 1.8%.

Usually solubility stands for how much of the substance goes into solution per volume. Regarding `CC(O)c1cccc(C(F)(F)C(F)(F)C(F)(F)F)c1` (centres unmarked), in data set [3], the solubility came out at 420 µM (≈ 122 µg/mL).

On to `CCCC(O)c1cc(C(F)(F)F)cc(C(F)(F)F)c1` (centres unmarked), for which the solubility in data set [3] (read-out: Solubility in water) worked out at 480 µM (≈ 137 µg/mL).

Take `CCCCCCCCCCCC(=O)Nc1cc(C(F)(F)F)cc(C(F)(F)F)c1` [ASMC11, N-[3,5-bis(trifluoromethyl)phenyl]dodecanamide]: in data set [1], the “NaCl - 20° C. % ext (average)” value was found to be 23.8% and the Δ % ext is reported as 18.0%. Also, in data set [1] (60° C.), the “Mol % Cl- extracted” value is 4.9% and 7.7%; the “Mol % Na+ extracted” value is 3.4% and 7.1%; the “NaCl - 60° C. % ext (average)” value is 5.8%. Further, in data set [1] (RT), the “Mol % Cl- extracted” value was 24.5% and 25.3%; the “Mol % Na+ extracted” value is 22.4% and 23.1%.

As for `CCCCCCCCCC(=O)Nc1cc(C(F)(F)F)cc(C(F)(F)F)c1` [ASMC9, N-[3,5-bis(trifluoromethyl)phenyl]decanamide], in data set [1], the “NaCl - 20° C. % ext (average)” value is on record as 24.4% and the Δ % ext came to 17.9%. In data set [1] (60° C.), the “Mol % Cl- extracted” value is 6.9% and 8.0%; the “Mol % Na+ extracted” value was 5.4% and 5.7%; the “NaCl - 60° C. % ext (average)” value is given as 6.5%. In data set [1] (RT), the “Mol % Cl- extracted” value was 27.1% and 23.8%; the “Mol % Na+ extracted” value was 25.2% and 21.7%.

Turning to `OC(c1cccc(C(F)(F)F)c1)c1cccc(C(F)(F)F)c1`, the solubility in data set [3] (read-out: Solubility in water) amounted to 70 µM (≈ 22.4 µg/mL).
